Measurements published in patent US10711004B2 (Genentech, Inc., priority 2018, dated 2020).
Like-named read-outs stand apart in the source and are kept apart here.

Molecular target: human TRPA1 channel (Homo sapiens (Human), UniProt O75762)
Test: hTRPA1 CHO Ca2+ FLIPR Tetra assay, block of cinnamaldehyde induced calcium influx
Format: cell-based
Settings: CHO cells expressing TRPA1, Hill coefficient fixed to 1.5
Method in brief: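 IC50 values come from fixed-Hill fits of inhibition of cinnamaldehyde-induced (about EC50 level) calcium influx measured by FLIPR Tetra. Before agonist, TRPA1-expressing CHO cells loaded with calcium indicator were exposed to compound for 10 or 90 min at room temperature in HEPES-buffered HBSS, pH 7.4, with 0.02% BSA.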

[1] = read-out: hTRPA1 IC50 (10 min), compounds incubated 10 minutes at room temperature before cinnamaldehyde agonist
[2] = read-out: hTRPA1 IC50 (90 min), compounds incubated 90 minutes at room temperature before cinnamaldehyde agonist

human TRPA1 channel, sequence (O75762 whole entry): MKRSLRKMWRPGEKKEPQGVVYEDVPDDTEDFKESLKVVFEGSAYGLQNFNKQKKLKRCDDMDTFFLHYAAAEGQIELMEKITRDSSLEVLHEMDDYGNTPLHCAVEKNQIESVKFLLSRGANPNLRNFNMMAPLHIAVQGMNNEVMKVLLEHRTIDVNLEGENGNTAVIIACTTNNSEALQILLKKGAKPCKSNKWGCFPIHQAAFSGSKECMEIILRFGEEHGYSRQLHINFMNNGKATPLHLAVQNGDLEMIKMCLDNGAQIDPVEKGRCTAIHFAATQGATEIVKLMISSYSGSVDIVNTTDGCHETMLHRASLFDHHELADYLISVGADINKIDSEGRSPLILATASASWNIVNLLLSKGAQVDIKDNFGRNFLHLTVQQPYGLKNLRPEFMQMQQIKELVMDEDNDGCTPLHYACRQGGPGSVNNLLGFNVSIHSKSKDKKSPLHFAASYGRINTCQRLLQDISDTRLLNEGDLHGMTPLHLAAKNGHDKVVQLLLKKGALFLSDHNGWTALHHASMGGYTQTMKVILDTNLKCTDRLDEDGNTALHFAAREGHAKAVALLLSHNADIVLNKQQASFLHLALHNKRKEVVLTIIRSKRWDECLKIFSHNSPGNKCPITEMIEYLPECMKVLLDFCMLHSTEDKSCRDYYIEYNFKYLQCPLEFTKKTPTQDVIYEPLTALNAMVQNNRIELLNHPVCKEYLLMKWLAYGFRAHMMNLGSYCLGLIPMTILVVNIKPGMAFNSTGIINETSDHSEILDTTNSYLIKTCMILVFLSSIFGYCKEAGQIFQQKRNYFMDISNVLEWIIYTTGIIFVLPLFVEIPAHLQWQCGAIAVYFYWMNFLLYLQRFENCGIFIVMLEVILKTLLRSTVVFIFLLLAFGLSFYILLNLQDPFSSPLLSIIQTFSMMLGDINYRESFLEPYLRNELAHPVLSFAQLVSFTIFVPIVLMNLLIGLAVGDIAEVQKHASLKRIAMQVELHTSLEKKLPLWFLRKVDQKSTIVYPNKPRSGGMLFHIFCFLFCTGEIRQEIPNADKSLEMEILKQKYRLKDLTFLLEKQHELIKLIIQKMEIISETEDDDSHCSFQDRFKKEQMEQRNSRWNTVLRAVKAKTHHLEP

IC50 [1] [nM]	IC50 [2] [nM]	IC50 (read-out: hTRPA1 IC50 (10 min), compounds incubated 10 minutes at room temperature before cinnamaldehyde agonist, listed as 254) [nM]	IC50 (read-out: hTRPA1 IC50 (90 min), compounds incubated 90 minutes at room temperature before cinnamaldehyde agonist, listed as 254) [nM]	Structure (SMILES)
33.1				O=c1c2ccncc2ncn1Cc1nc([C@H]2[C@@H]3CN(c4cccc(Cl)c4)C[C@@H]32)no1 [Example Compound 230, 3-((3-((1R,5S,6r)-3-(3-chlorophenyl)-3-azabicyclo[3.1.0]hexan-6-yl)-1,2,4-oxadiazol-5-yl)methyl)pyrido[3,4-d]pyrimidin-4(3H)-one]
57.3				Cn1cnc2ncn(Cc3nc([C@H]4C[C@H](c5ccc6ccccc6c5)C4)no3)c(=O)c21 [Example Compound 231, 7-methyl-1-((3-((1r,3r)-3-(naphthalen-2-yl)cyclobutyl)-1,2,4-oxadiazol-5-yl)methyl)-1,7-dihydro-6H-purin-6-one]
	4.8			Cc1cncc2ncn(Cc3nc([C@H]4C[C@](O)(c5ccc6ccccc6c5)C4)no3)c(=O)c12 [Example Compound 232, 3-((3-((1s,3s)-3-hydroxy-3-(naphthalen-2-yl)cyclobutyl)-1,2,4-oxadiazol-5-yl)methyl)-5-methylpyrido[3,4-d]pyrimidin-4(3H)-one]
38.6				Cc1ccnc2ncn(Cc3nc([C@H]4C[C@](O)(c5ccc6ccccc6c5)C4)no3)c(=O)c12 [Example Compound 233, 3-((3-((1s,3s)-3-hydroxy-3-(naphthalen-2-yl)cyclobutyl)-1,2,4-oxadiazol-5-yl)methyl)-5-methylpyrido[2,3-d]pyrimidin-4(3H)-one]
73.5	17			Cn1cnc2ncn(Cc3nc([C@H]4[C@@H]5CN(c6cccc(C#N)c6)C[C@@H]54)no3)c(=O)c21 [Example Compound 235, 3-((1R,5S,6r)-6-(5-((7-methyl-6-oxo-6,7-dihydro-1H-purin-1-yl)methyl)-1,2,4-oxadiazol-3-yl)-3-azabicyclo[3.1.0]hexan-3-yl)benzonitrile]
21.3	4.4			Cn1cnc2ncn(Cc3nc([C@H]4[C@@H]5CN(c6cccc(Cl)c6F)C[C@@H]54)no3)c(=O)c21 [Example Compound 236, 1-((3-((1R,5S,6r)-3-(3-chloro-2-fluorophenyl)-3-azabicyclo[3.1.0]hexan-6-yl)-1,2,4-oxadiazol-5-yl)methyl)-7-methyl-1,7-dihydro-6H-purin-6-one]
18.2	2.1			Cn1cnc2ncn(Cc3nc([C@H]4[C@@H]5CN(c6ccc7sncc7c6)C[C@@H]54)no3)c(=O)c21 [Example Compound 237, 1-((3-((1R,5S,6r)-3-(benzo[d]isothiazol-5-yl)-3-azabicyclo[3.1.0]hexan-6-yl)-1,2,4-oxadiazol-5-yl)methyl)-7-methyl-1,7-dihydro-6H-purin-6-one]
101	45			Cn1c(NC2COC2)nc2ncn(Cc3nc([C@H]4[C@@H]5C=C(c6ccccc6)C[C@@H]54)no3)c(=O)c21 [Example Compound 243, 7-methyl-8-(oxetan-3-ylamino)-1-[[3-[(1S,5S,6R)-3-phenyl-6-bicyclo[3.1.0]hex-2-enyl]-1,2,4-oxadiazol-5-yl]methyl]purin-6-one]
68.7	26			CN(C)C(=O)CNc1nc2ncn(Cc3nc([C@H]4[C@@H]5C=C(c6ccccc6)C[C@@H]54)no3)c(=O)c2n1C [Example Compound 244, N,N-dimethyl-2-[[7-methyl-6-oxo-1-[[3-[(1S,5S,6R)-3-phenyl-6-bicyclo[3.1.0]hex-2-enyl]-1,2,4-oxadiazol-5-yl]methyl]purin-8-yl]amino]acetamide]
53.9	29			CCNc1nc2ncn(Cc3nc([C@H]4[C@@H]5C=C(c6ccccc6)C[C@@H]54)no3)c(=O)c2n1C [Example Compound 246, 8-(ethylamino)-7-methyl-1-[[3-[(1S,5S,6R)-3-phenyl-6-bicyclo[3.1.0]hex-2-enyl]-1,2,4-oxadiazol-5-yl]methyl]purin-6-one]
57.9	23			Cn1cnc2ncn(Cc3nc([C@H]4[C@@H]5CN(c6ccc(C#N)cc6F)C[C@@H]54)no3)c(=O)c21 [Example Compound 247, 3-fluoro-4-[(1S,5R)-6-[5-[(7-methyl-6-oxo-purin-1-yl)methyl]-1,2,4-oxadiazol-3-yl]-3-azabicyclo[3.1.0]hexan-3-yl]benzonitrile]
43.5	31			Cc1cnn2ncn(Cc3nc([C@H]4C[C@](F)(c5cccc(Cl)c5)C4)no3)c(=O)c12 [Example Compound 253, 3-[[3-[trans-3-(3-chlorophenyl)-3-fluoro-cyclobutyl]-1,2,4-oxadiazol-5-yl]methyl]-5-methyl-pyrazolo[5,1-f][1,2,4]triazin-4-one]
		12.3	2.1	Cn1cnc2ncn(Cc3nc([C@@H]4[C@H]5C=C(c6cccc(F)c6F)C[C@H]54)no3)c(=O)c21 [Example Compound 254, 7-methyl-1-[[3-[(1R,5R,6S)-3-(2,3-difluorophenyl)-6-bicyclo[3.1.0]hex-2-enyl]-1,2,4-oxadiazol-5-yl]methyl]purin-6-one]
21.7	6.6			Cn1cnc2ncn(Cc3nc([C@H]4[C@@H]5C=C(c6ccc(C#N)cc6)C[C@@H]54)no3)c(=O)c21 [Example Compound 256, 4-[(1S,5S,6R)-6-[5-[(7-methyl-6-oxo-purin-1-yl)methyl]-1,2,4-oxadiazol-3-yl]-3-bicyclo[3.1.0]hex-2-enyl]benzonitrile]

More lines, now with the values behind:

Structure (SMILES)	IC50 [1] [nM]	IC50 [2] [nM]	IC50 (read-out: hTRPA1 IC50 (10 min), compounds incubated 10 minutes at room temperature before cinnamaldehyde agonist, listed as 254) [nM]	IC50 (read-out: hTRPA1 IC50 (90 min), compounds incubated 90 minutes at room temperature before cinnamaldehyde agonist, listed as 254) [nM]
Cn1cnc2ncn(Cc3nc([C@H]4[C@@H]5CN(c6cccc(-c7ccccc7)c6)C[C@@H]54)no3)c(=O)c21 [Example Compound 234, 1-((3-((1R,5S,6r)-3-([1,1′-biphenyl]-3-yl)-3-azabicyclo[3.1.0]hexan-6-yl)-1,2,4-oxadiazol-5-yl)methyl)-7-methyl-1,7-dihydro-6H-purin-6-one]	340			
Cc1cc(N)nc2ncn(Cc3nc([C@H]4[C@@H]5C=C(c6ccccc6)C[C@@H]54)no3)c(=O)c12 [Example Compound 238, 7-amino-5-methyl-3-[[3-[(1S,5S,6R)-3-phenyl-6-bicyclo[3.1.0]hex-2-enyl]-1,2,4-oxadiazol-5-yl]methyl]pyrido[2,3-d]pyrimidin-4-one]	11.3	1.5		
Nc1ccc2c(=O)n(Cc3nc([C@H]4[C@@H]5C=C(c6ccccc6)C[C@@H]54)no3)cnc2n1 [Example Compound 239, 7-amino-3-[[3-[(1S,5S,6R)-3-phenyl-6-bicyclo[3.1.0]hex-2-enyl]-1,2,4-oxadiazol-5-yl]methyl]pyrido[2,3-d]pyrimidin-4-one]	10.5	5.3		
Cn1cnc2ncn(Cc3nc([C@@H]4[C@H]5CC[C@H](Oc6ccccc6)[C@H]54)no3)c(=O)c21 [Example Compound 240, 7-methyl-1-[[3-[(1R,2S,5R,6R)-2-phenoxy-6-bicyclo[3.1.0]hexanyl]-1,2,4-oxadiazol-5-yl]methyl]purin-6-one]	254	80		
CC(=O)Nc1nc2ncn(Cc3nc([C@H]4[C@@H]5C=C(c6ccccc6)C[C@@H]54)no3)c(=O)c2n1C [Example Compound 241, N-[7-methyl-6-oxo-1-[[3-[(1S,5S,6R)-3-phenyl-6-bicyclo[3.1.0]hex-2-enyl]-1,2,4-oxadiazol-5-yl]methyl]purin-8-yl]acetamide]	66.9	18		
Cn1cnc2ncn(Cc3nc([C@@H]4[C@H]5C=C(c6ccc(F)c(F)c6F)C[C@H]54)no3)c(=O)c21 [Example Compound 242, 7-methyl-1-[[3-[(1R,5R,6S)-3-(2,3,4-trifluorophenyl)-6-bicyclo[3.1.0]hex-2-enyl]-1,2,4-oxadiazol-5-yl]methyl]purin-6-one]	19.1	6.3		
Cn1c(NC2CCOCC2)nc2ncn(Cc3nc([C@H]4[C@@H]5C=C(c6ccccc6)C[C@@H]54)no3)c(=O)c21 [Example Compound 245, 7-methyl-1-[[3-[(1S,5S,6R)-3-phenyl-6-bicyclo[3.1.0]hex-2-enyl]-1,2,4-oxadiazol-5-yl]methyl]-8-(tetrahydropyran-4-ylamino)purin-6-one]	79.9	43		
Cn1cnc2ncn(Cc3nc([C@@H]4[C@H]5C=C(c6ccccc6)[C@@H](O)[C@H]54)no3)c(=O)c21 [Example Compound 250, 7-methyl-1-[[3-[(1R,4S,5R,6R)-4-hydroxy-3-phenyl-6-bicyclo[3.1.0]hex-2-enyl]-1,2,4-oxadiazol-5-yl]methyl]purin-6-one]	312	40		
Cn1cnc2ncn(Cc3nc([C@H]4[C@@H]5C=C(c6cc(F)c(F)c(F)c6)C[C@@H]54)no3)c(=O)c21 [Example Compound 251, 7-methyl-1-[[3-[(1S,5S,6R)-3-(3,4,5-trifluorophendyl)-6-bicyclo[3.1.0]hex-2-enyl]-1,2,4-oxadiazol-5-yl]methyl]purin-6-one]	14.9	2		
Cn1c(NCCO)nc2ncn(Cc3nc([C@H]4[C@@H]5C=C(c6ccccc6)C[C@@H]54)no3)c(=O)c21 [Example Compound 252, 8-(2-hydroxyethylamino)-7-methyl-1-[[3-[(1S,5S,6R)-3-phenyl-6-bicyclo[3.1.0]hex-2-enyl]-1,2,4-oxadiazol-5-yl]methyl]purin-6-one]	304	68		
Cn1c(N)nc2ncn(Cc3nc([C@H]4[C@@H]5C=C(c6ccccc6)C[C@@H]54)no3)c(=O)c21 [Example Compound 255, 8-amino-7-methyl-1-[[3-[(1S,5S,6R)-3-phenyl-6-bicyclo[3.1.0]hex-2-enyl]-1,2,4-oxadiazol-5-yl]methyl]purin-6-one]	33.3	3.8		
